Like-named read-outs stand apart in the source and are kept apart here.
How the values were obtained:
[1] = test system: F21T-K+ (human telomeric G-quadruplex, mixed parallel/hybrid); assay: FRET melting assay, human telomeric G4 in potassium buffer; assay type: binding; details: 200 nM DNA, PIPER and 3 not reliable (spectral overlap)
Method: (§1) With the library in hand, we began our investigation into G4 stabilization by conducting a Förster resonance energy transfer (FRET) melting assay to assess DNA stabilization using the procedure outlined by De Cian et. al. ^[13] […] The sequences examined (at 200 nM) were the human telomeric G4 in potassium buffer (F21T‐K^+, mixed parallel/hybrid G4) ^[14] and sodium buffer (F21T‐Na^+, antiparallel G4), ^[15] the c‐Myc promoter G‐quadruplex (FmycT‐K^+, parallel G4), ^[16] a polymorphic G4 found in T. brucei (FEBR1T‐K^+, a mixed G4 topology), ^[6b] and a hairpin duplex DNA sequence (F10T‐K^+). Together, these sequences represent targets for therapeutic intervention to treat parasitic infections, ^[6b] or cancer. ^[1b] The topology of each sequence was confirmed independently via circular dichroism (CD, Figure S1). […]
(§2) FRET melting assays were performed to assess ligand affinity for duplex and G-quadruplex
(§3) DNA. Briefly, oligonucleotides of interest were obtained labelled at the 5’ and 3’ ends with FAM (a fluorescence donor) and TAMRA (a fluorescence quencher), respectively. In the folded state, proximity of the donor and quencher result in no observed fluorescence from FAM, since energy is transferred non-radiatively to TAMRA by FRET. As the temperature is raised and the secondary structure denatures, the fluorophores move further apart and the fluorescence signal increases. From the resulting curve, the characteristic melting temperature (Tmax, also referred to as Tm) is defined as the temperature which corresponds to the maxima of the first derivative of the normalised fluorescence signal. The change in melting temperature (ΔTm) induced by the presence of a small molecule ligand provides an indication of the ligand’s ability to stabilise the DNA structure. FRET experiments were performed according to the […]
(§4) procedure reported by De Cian and co-workers[S3] on a Stratagene MX3005P. The method consisted of holding at 25 °C for 5 min, before heating at 1 °C/min to 96 °C in 1 °C increments, […]

[2] = test system: F21T-Na+ (human telomeric G-quadruplex, antiparallel); assay: FRET melting assay, human telomeric G4 in sodium buffer; assay type: binding; details: 200 nM DNA, PIPER and 3 not reliable (spectral overlap)
Method: as §1, §2, §3, §4

[3] = test system: FmycT-K+ (c-Myc promoter G-quadruplex, parallel); assay: FRET melting assay, c-Myc promoter G4; assay type: binding; details: 200 nM DNA, PIPER and 3 not reliable (spectral overlap)
Method: as §1, §2, §3, §4

[4] = test system: Febr1T-K+ (T. brucei G-quadruplex); assay: FRET melting assay, T. brucei G4; assay type: binding; details: 200 nM DNA, PIPER and 3 not reliable (spectral overlap)
Method: as §1, §2, §3, §4

[5] = test system: F10T-K+ (hairpin duplex DNA); assay: FRET melting assay, hairpin duplex DNA; assay type: binding; details: 200 nM DNA, PIPER and 3 not reliable (spectral overlap)
Method: as §1, §2, §3, §4

[6] = test system: MRC5 non-tumoral cells; assay: Cytotoxicity, alamarBlue assay, MRC5; assay type: cell-based, human; details: Homo sapiens, MRC5, 72 h, 72 h incubation, alamarBlue fluorescence; read-out: absolute EC50 MRC5
Method: (§5) Doxorubicin, suramin and miltefosine were used as control compounds.[ ^6b , ^9 ] After incubation with varied concentrations of the compounds for 72 h, cell viability was measured using either an alamarBlue™ assay (for MRC5, HeLa and T. brucei) or MTT assay (for L. major). Absolute EC50 values and selectivity indexes were then calculated from dose‐response curves (Table 2 and S14). […]
(§6) Cell culture reagents were purchased from Thermo Fisher Scientific (Waltham, MA, USA) and used as-is. The Dulbecco’s Minimal Essential Medium (DMEM) formulation contained either high glucose (4.5 g/L, catalogue number: 10569) or low glucose (1 g/L, catalogue number:
(§7) 10567). RPMI-1640 was provided without sodium pyruvate and with L-glutamine (catalogue number: 11875). Phosphate Buffered Saline (PBS) contained NaCl (9 g/L), KH2PO4 (144 mg/L) and Na2HPO4-7.H2O (795 mg/L, catalogue number: 10010049). TrypLE Express™ was provided with EDTA (458 mg/L) and without Phenol Red (catalogue number: 12604021).
(§8) MRC-5 cells (human lung fibroblasts) were grown in monolayer (37 °C, 5 % CO2 and 100 % humidity) in DMEM medium (1 g/L glucose), supplemented with 10% heat-inactivated Fetal Bovine Serum (hiFBS), 2 mM L-glutamine, 100 U / mL penicillin and […]
(§9) streptomycin. […]
(§10) Cells were cultured according to ATCC recommendations and were used for the experiments while in the exponential growth phase. […]
(§11) Cytotoxicity was measured through the alamarBlue® assay (Thermo Fisher Scientific).[S6,S13] Briefly, 5×10^3 MRC-5 or HeLa cells were seeded in 96-wells plates (100 µL / well) in the presence of increasing concentrations of compound. After 72 hrs of incubation at 37 °C, 20 µL of alamarBlue® solution (110 ng / ml) was added to each well and cells were reincubated for 4 hrs at 37 °C. Then, 50 µL of 3 % SDS were added to each well. The plate was incubated at 37 °C for an extra hour and then analysed by fluorescence with an Infinite F200 plate reader (TECAN Austria, GmbH). The excitation wavelength was fixed at 550 nm and the emission wavelength at 590 nm. The results are expressed as the concentration of compound that reduces

[7] = test system: HeLa cervical carcinoma cells; assay: Cytotoxicity, alamarBlue assay, HeLa; assay type: cell-based, human; details: Homo sapiens, HeLa; 72 h incubation, alamarBlue fluorescence; read-out: absolute EC50 HeLa
Method: as §5, §6, §7
MRC-5 cells (human lung fibroblasts) were grown in monolayer (37 °C, 5 % CO2 and 100 % humidity) in DMEM medium (1 g/L glucose), supplemented with 10% heat-inactivated Fetal Bovine Serum (hiFBS), 2 mM L-glutamine, 100 U / mL penicillin and […] streptomycin. HeLa (Human cervical carcinoma cell line) cells were maintained at 37 °C and 5 % CO2 in high glucose DMEM (4.5 g / L) supplemented with 10% hiFBS, 100 U / ml penicillin, […] streptomycin, 2 mM L-glutamine and non-essential aminoacids (1X).
as §10, §11

[8] = test system: T. brucei; assay: Trypanocidal activity, alamarBlue assay; assay type: cell-based; details: Trypanosoma brucei; 72 h incubation, alamarBlue fluorescence; read-out: absolute EC50 T. brucei
Method: as §5, §6, §7, §8, §9, §10
hiFBS. Parasites were split every other day and maintained in their experimental growth phase (below 2 million parasites per mL).
as §11

[9] = test system: L. major; assay: Leishmaniacidal activity, MTT assay; assay type: cell-based; details: Leishmania major; 72 h incubation, MTT absorbance; read-out: absolute EC50 L. major
Method: Doxorubicin, suramin and miltefosine were used as control compounds.[ ^6b , ^9 ] After incubation with varied concentrations of the compounds for 72 h, cell viability was measured using either an alamarBlue™ assay (for MRC5, HeLa and T. brucei) or MTT assay (for L. major). Absolute EC50 values and selectivity indexes were then calculated from dose‐response curves (Table 2 and S14).
Invitrogen). L. major promastigotes (MHOM/IL/80/Friedlin) were cultured at 28 °C, 5 % CO2 in modified RPMI-1640 medium (Thermo Fisher Scientific, Waltham, MA, USA) with 10% hiFBS. Parasites were split every other day and maintained in their experimental growth phase (below 2 million parasites per mL). […]
The results are expressed as the concentration of compound that reduces cell growth by 50 % versus untreated control cells (EC50) using GraphPad Prism 7 (GraphPad Software) to fit the data to a sigmoidal curve. Data are presented as the average of three independent measurements all conducted in triplicate conditions. […]
The leishmaniacidal activity of the compounds on promastigotes L. major (MHOM/IL/80/Friedlin) was carried out as previously described.[S14] Briefly, 4 × 10^6 / mL promastigotes were incubated for 72 h at 28 °C in 96-well plates (50 µL/well) in the presence of increasing concentration of compounds. Cell proliferation was determined using an MTT-based assay (Sigma-Aldrich). Thus, after the 72 h incubation, 10 µL of MTT (5 mg/ml) were added to each well and parasites were reincubated for 4 hrs at 28 °C. Then, 50 µL of 20 % SDS were added to each well. The plate was then incubated at 37°C for 4-16 hrs and analysed using an Infinite F200 plate reader (TECAN Austria, GmbH). The absorbance was measured […]
at a wavelength of 540 nm and the EC50 was calculated as described above. Data are presented as the average of three independent measurements, all conducted in triplicate conditions. […]

[10] = test system: F21T (DNA, G4) GGGTTAGGGTTAGGGTTAGGG; assay: FRET melting; details: 10 mM K+, 90 mM Li+, 10 mM Li cacodylate, 200 nM DNA
[11] = test system: T. brucei; parameters: method as in earlier work; details: typical G4 interactive compounds; ref 6b; cited from earlier work
[12] = test system: F10T (DNA, hairpin, hexaethylene glycol (HEG) linker between 10 and 11) TATAGCTATATATAGCTATA; assay: FRET melting; details: 10 mM K+, 90 mM Li+; 10 mM Li cacodylate; 1 µM ligand, 200 nM DNA
[13] = test system: FMycT (DNA, G4) TTGAGGGTGGGTAGGGTGGGTAA; assay: FRET melting; details: 1 mM K+, 99 mM Li+; 10 mM Li cacodylate; 1 µM ligand, 200 nM DNA
[14] = test system: Febr1T (DNA, G4) GGGCAGGGGGTGATGGGGAGGAGCCAGGG; assay: FRET melting; details: 10 mM K+, 90 mM Li+; 10 mM Li cacodylate; 1 µM ligand, 200 nM DNA

**Q.** What does the source list for `CN1CCN(CCCN2C(=O)c3ccc(-c4ccc5c(c4)C(=O)N(CCCN4CCN(C)CC4)C5=O)cc3C2=O)CC1` [Compound 4]?
**A.** ΔTm F21T-K+ ([1]; 10 µM ligand): 1 ± 1 °C; ΔTm F21T-Na+ ([2]; 10 µM ligand): -2 ± 2 °C; ΔTm FmycT-K+ ([3]; 10 µM ligand): 2 ± 1 °C; ΔTm Febr1T-K+ ([4]; 10 µM ligand): 3 ± 1 °C; ΔTm F10T-K+ ([5]; 10 µM ligand): 0 ± 1 °C; EC50 [6]: > 100 µM; EC50 [7]: > 100 µM; EC50 [8]: 57 ± 10 µM; EC50 [9]: > 100 µM; ΔTm ([10]; 10 µM ligand): 1 ± 1 °C

**Q.** Which EC50 [11] does the source give for `CN(C)c1ccc(Nc2c3ccc(NC(=O)CCN4CCCC4)cc3nc3cc(NC(=O)CCN4CCCC4)ccc23)cc1` [BRACO‐19] here?
**A.** Its EC50 is 7.8 µM.

**Q.** And the “selectivity index (SI) T. brucei over MRC5” value [11]?
**A.** Its value is 1.5.

**Q.** Which ΔTm [12] does the source give for `C[n+]1ccc(-c2c3nc(c(-c4cc[n+](C)cc4)c4ccc([nH]4)c(-c4cc[n+](C)cc4)c4nc(c(-c5cc[n+](C)cc5)c5ccc2[nH]5)C=C4)C=C3)cc1` here?
**A.** Its ΔTm is 9 ± 1 °C.

**Q.** Which “ΔTm F21T-K+” value ([1]; 1 µM ligand) does the source give for `NCCOc1cc(C(=O)Nc2cc(OCCN)c3ccccc3n2)nc(C(=O)Nc2cc(OCCN)c3ccccc3n2)c1` [Pyridostatin, reference compound] here?
**A.** Its value is 34 ± 1 °C.

**Q.** What about the “ΔTm F21T-Na+” value ([2]; 1 µM ligand) of the same molecule?
**A.** The value was 36 ± 2 °C.

**Q.** What about the “ΔTm FmycT-K+” value ([3]; 1 µM ligand) of the same molecule?
**A.** The value was 20 ± 3 °C.

**Q.** What about the “ΔTm Febr1T-K+” value ([4]; 1 µM ligand) of the same molecule?
**A.** Its value is 29 ± 2 °C.

**Q.** What about the “ΔTm F10T-K+” value ([5]; 1 µM ligand) of the same molecule?
**A.** Its value is 1 ± 1 °C.

**Q.** And the ΔTm ([10]; 1 µM ligand)?
**A.** The ΔTm was 34 ± 1 °C.

**Q.** And the ΔTm [13]?
**A.** The ΔTm was 20 ± 3 °C.

**Q.** And the ΔTm [14]?
**A.** Its ΔTm is 29 ± 2 °C.

**Q.** What about the EC50 [11] of the same molecule?
**A.** Its EC50 is 5.5 µM.
